The supplement of paper PMC4862054

Legend:
Conditions in all cases: incubation time: 72 h
MDA-MB-468 [1] = assay: normalised response (% of control), CellTox Green; higher = less cell death (100 = DMSO, 0 = benzethonium chloride kill control)
Method in brief: (§1)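 Values are normalised signals, each belonging to one concentration of the series. Breast cancer cells (20 µl suspension) were seeded into 384-well plates with compound at 5 concentrations in 10-fold steps over a compound-specific 10,000-fold range and incubated 72 h. Readouts were CellTox Green fluorescence (485/520 nm), then CellTiter-Glo luminescence after 10 min at room temperature, with each plate set to 0.1 % DMSO as 100 and a positive kill control as 0.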

HCC1599 [2] = assay: as above
Method in brief: as §1

CAL-148 [3] = assay: as above
Method in brief: as §1

MDA-MB-231 [4] = assay: as above
Method in brief: as §1

BT-474 [5] = assay: as above
Method in brief: as §1

DU-4475 [6] = assay: as above
Method in brief: as §1

MCF-10A [7] = assay: as above
Method in brief: as §1

BT-549 [8] = assay: as above
Method in brief: as §1

HCC1143 [9] = assay: as above
Method in brief: as §1

MFM-223 [10] = assay: as above
Method in brief: as §1

MDA-MB-436 [11] = assay: as above
Method in brief: as §1

HCC1937 [12] = assay: as above
Method in brief: as §1

CAL-51 [13] = assay: as above
Method in brief: as §1

Hs578T [14] = assay: as above
Method in brief: as §1

CAL-85-1 [15] = assay: as above
Method in brief: as §1

HDQ-P1 [16] = assay: as above
Method in brief: as §1

CAL-120 [17] = assay: as above
Method in brief: as §1

MDA-MB-453 [18] = assay: as above
Method in brief: as §1

SK-BR-3 = assay: normalised response (% of control), CellTiter-Glo; higher = more viable cells (100 = DMSO, 0 = benzethonium chloride kill control)
Experimental: (§2)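 DSRT, 72 h incubation, CellTox Green / CellTiter-Glo readout. Signal is normalised to DMSO and benzethonium chloride controls. Value is the normalised response at the highest dose.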

MDA-MB-468 [19] = assay: as above
Experimental: as §2

HCC1599 [20] = assay: as above
Experimental: as §2

CAL-148 [21] = assay: as above
Experimental: as §2

MDA-MB-231 [22] = assay: as above
Experimental: as §2

BT-474 [23] = assay: as above
Experimental: as §2

DU-4475 [24] = assay: as above
Experimental: as §2

MCF-10A [25] = assay: as above
Experimental: as §2

BT-549 [26] = assay: as above
Experimental: as §2

HCC1143 [27] = assay: as above
Experimental: as §2

MFM-223 [28] = assay: as above
Experimental: as §2

MDA-MB-436 [29] = assay: as above
Experimental: as §2

HCC1937 [30] = assay: as above
Experimental: as §2

CAL-51 [31] = assay: as above
Experimental: as §2

Hs578T [32] = assay: as above
Experimental: as §2

CAL-85-1 [33] = assay: as above
Experimental: as §2

HDQ-P1 [34] = assay: as above
Experimental: as §2

CAL-120 [35] = assay: as above
Experimental: as §2

MDA-MB-453 [36] = assay: as above
Experimental: as §2

SMILES | normalised response (MDA-MB-468 [1]) | normalised response (HCC1599 [2]) | normalised response (CAL-148 [3]) | normalised response (MDA-MB-231 [4]) | normalised response (BT-474 [5]) | normalised response (DU-4475 [6]) | normalised response (MCF-10A [7]) | normalised response (BT-549 [8]) | normalised response (HCC1143 [9]) | normalised response (MFM-223 [10]) | normalised response (MDA-MB-436 [11]) | normalised response (HCC1937 [12]) | normalised response (CAL-51 [13]) | normalised response (Hs578T [14]) | normalised response (CAL-85-1 [15]) | normalised response (HDQ-P1 [16]) | normalised response (CAL-120 [17]) | normalised response (MDA-MB-453 [18]) | normalised response (SK-BR-3) | normalised response (MDA-MB-468 [19]) | normalised response (HCC1599 [20]) | normalised response (CAL-148 [21]) | normalised response (MDA-MB-231 [22]) | normalised response (BT-474 [23]) | normalised response (DU-4475 [24]) | normalised response (MCF-10A [25]) | normalised response (BT-549 [26]) | normalised response (HCC1143 [27]) | normalised response (MFM-223 [28]) | normalised response (MDA-MB-436 [29]) | normalised response (HCC1937 [30]) | normalised response (CAL-51 [31]) | normalised response (Hs578T [32]) | normalised response (CAL-85-1 [33]) | normalised response (HDQ-P1 [34]) | normalised response (CAL-120 [35]) | normalised response (MDA-MB-453 [36])
CC1(C)CCC(CN2CCN(c3ccc(C(=O)NS(=O)(=O)c4ccc(NCC5CCOCC5)c([N+](=O)[O-])c4)c(Oc4cnc5[nH]ccc5c4)c3)CC2)=C(c2ccc(Cl)cc2)C1 [ABT-199] (10000 nM) | 118% | 105% | 98.2% | -19% | 101% | 97.9% | 108% | 84.9% | 103% | 86.4% | 95.9% | -11.4% | 101% | 102% | 114% | 98.2% | 88.4% | 97.7% | 90% | 85.9% | 66.4% | 105% | 66.3% | 70.2% | 86.2% | 116% | 91.4% | 93.7% | 91% | 102% | 73.2% | 119% | 90.5% | 97.8% | 90.8% | 98.5% | 92.9%
Cc1ccc([N+](=O)[O-])cc1S(=O)(=O)N(C)/N=C/c1cnc2ccc(Br)cn12 [PIK-75] (10000 nM) | 31.6% | 72.6% | 65.1% | -38.5% | 7.46% | 74.7% | -39.7% | -7.34% | 54.4% | 18.6% | 76% | 24.7% | -5.71% | -10.9% | 50.7% | 66.3% | 81.7% | 51.3% | 0.21% | 2.17% | 8.43% | 37.5% | 1.78% | 8.5% | 1.22% | -0.11% | 1.57% | 12.6% | 3.73% | 15% | 6.99% | 5.22% | 0.96% | 7.97% | 17.4% | 26.6% | 0.48%
CC(=O)N(O)CCCCCNC(=O)CCC(=O)N(O)CCCCCNC(=O)CCC(=O)N(O)CCCCCN [Deferoxamine] (10000 nM) | 150% | 92.8% | 37.6% | 98.7% | 82.7% | 81.2% | 105% | 81.3% | 79.9% | 101% | 98.2% | 90.9% | 48% | 113% | 128% | 104% | 103% | 102% | 40.5% | 37.7% | 45.9% | 26.6% | 71.8% | 76% | 18.3% | 57.5% | 54.5% | 65% | 70.9% | 48.8% | 64.1% | 37.9% | 62% | 78.8% | 64.6% | 87.2% | 89.6%
